Reference: article PMC4582009 (Bioorganic & medicinal chemistry, 2015)

Experiments:
[1] = target: cloned human κ opioid receptor (Homo sapiens, UniProt P41145); test: biochemical; type: biochemical; conditions: for times less potent than JDTic as a κ opioid receptor antagonist: ratio of κ Ke values vs JDTic
[2] = target: cloned human δ opioid receptor (Homo sapiens, UniProt P41143); test: biochemical
[3] = target: cloned human μ opioid receptor (Homo sapiens, UniProt P35372); type: biochemical; conditions: ratio of μ Ke values vs 3b
Chain of cloned human μ opioid receptor (P35372 whole entry): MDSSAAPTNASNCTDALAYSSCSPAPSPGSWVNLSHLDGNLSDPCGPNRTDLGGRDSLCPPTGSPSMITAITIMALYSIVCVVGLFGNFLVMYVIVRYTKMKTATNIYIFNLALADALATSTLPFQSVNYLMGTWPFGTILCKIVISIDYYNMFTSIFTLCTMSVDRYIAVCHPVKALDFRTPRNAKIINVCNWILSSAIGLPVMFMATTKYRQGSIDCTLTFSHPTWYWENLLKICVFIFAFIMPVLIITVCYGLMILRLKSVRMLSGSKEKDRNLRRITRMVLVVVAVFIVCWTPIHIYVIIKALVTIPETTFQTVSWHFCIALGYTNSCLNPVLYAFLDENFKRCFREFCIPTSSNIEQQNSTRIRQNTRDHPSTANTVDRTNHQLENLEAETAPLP

Chain of cloned human δ opioid receptor (P41143 whole entry): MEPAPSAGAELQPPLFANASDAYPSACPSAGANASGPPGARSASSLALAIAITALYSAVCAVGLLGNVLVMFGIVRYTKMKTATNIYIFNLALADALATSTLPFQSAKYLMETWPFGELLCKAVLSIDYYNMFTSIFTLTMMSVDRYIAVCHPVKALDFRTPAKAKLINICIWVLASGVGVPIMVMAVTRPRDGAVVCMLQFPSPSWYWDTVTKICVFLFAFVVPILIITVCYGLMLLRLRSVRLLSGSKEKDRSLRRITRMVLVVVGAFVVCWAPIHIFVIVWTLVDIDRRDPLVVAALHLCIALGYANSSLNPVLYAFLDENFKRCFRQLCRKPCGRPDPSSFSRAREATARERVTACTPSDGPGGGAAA
Chain of cloned human κ opioid receptor (P41145 whole entry): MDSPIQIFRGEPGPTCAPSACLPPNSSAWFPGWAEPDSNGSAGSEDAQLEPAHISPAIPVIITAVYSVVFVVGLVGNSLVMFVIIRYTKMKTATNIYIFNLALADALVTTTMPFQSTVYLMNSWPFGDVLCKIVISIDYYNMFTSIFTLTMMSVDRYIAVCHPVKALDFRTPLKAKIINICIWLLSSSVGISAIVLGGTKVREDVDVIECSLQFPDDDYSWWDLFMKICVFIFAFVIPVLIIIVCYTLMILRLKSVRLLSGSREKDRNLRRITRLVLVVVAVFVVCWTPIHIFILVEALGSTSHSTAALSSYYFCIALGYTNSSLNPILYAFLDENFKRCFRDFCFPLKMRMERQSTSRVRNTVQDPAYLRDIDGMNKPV

SMILES	times less potent than JDTic as a κ opioid receptor antagonist [1]	Kb [2]	further results
CC(C)[C@@H](CN1CCC(C)(c2cccc(O)c2)CC1)NC(=O)[C@H]1Cc2ccc(O)cc2CN1 [Compound 4a, (3R)-7-Hydoxy-N-[(1S)-1-{[4-(3-hydroxyphenyl)-4-methylpiperidin-1-yl]methyl}-2-methylpropyl]-1,2,3,4-tetrahydroisoquinoline-3-carboxamide]	35 fold	927 ± 350 nM	–
CC(C)[C@@H](CN1CCC(C)(c2cccc(F)c2)CC1)NC(=O)[C@H]1Cc2ccc(O)cc2CN1 [Compound 4b, (3R)-N-[(1S)-1-{[4-(3-fluorophenyl)-4-methylpiperidin-1-yl]methyl}-2-methylpropyl]-7-hydroxy-1,2,3,4-tetrahydroisoquinoline-3-carboxamide]	9 fold	–	functional profile in the [35S]GTPγS test (opioid receptors): pure opioid antagonist
CC[C@H](C)[C@@H](CN1CCC(C)(c2cccc(F)c2)CC1)NC(=O)[C@H]1Cc2ccc(O)cc2CN1 [Compound 4c, (3R)-N-[(1S,2S)-1-{[4-(3-Fluorophenyl)-4-methylpiperidin-1-yl]methyl}-2-methylbutyl]-7-hydroxy-1,2,3,4-tetrahydroisoquinoline-3-carboxamide]	–	903 ± 200 nM	δ/κ [1]: 27,363; μ/κ [1]: 342
CC(C)[C@@H](CN1CCC(c2ccccc2)CC1)NC(=O)[C@H]1Cc2ccc(O)cc2CN1 [Compound 4e, (3R)-7-Hydroxy-N-{(1S)-2-methyl-1-[(4-phenylpiperidin-1-yl]methyl]propyl}-1,2,3,4-tetrahydroisoquinoline-3-carboxamide]	2.6 fold	281 ± 44 nM	Kb [1]: 0.051 ± 0.01 nM; times less potent than 3a as a κ antagonist ([1]; ratio of κ Ke values vs 3a): 2 fold
CC(C)[C@@H](CN1CCC(c2cccc(F)c2)CC1)NC(=O)[C@H]1Cc2ccc(O)cc2CN1 [Compound 4f, (3R)-N-[(1S)-1-{[4-(3-Fluorophenyl)piperidin-1-yl]methyl}-2-methylpropyl]-7-hydroxy-1,2,3,4-tetrahydroisoquinoline-3-carboxamide]	–	–	times more potent as a μ antagonist than 3b [3]: 4 fold
